In patent publication US6569849B1, “N-Substituted azaheterocyclic compounds” (Novo Nordisk A/S, priority 1996, dated 2003):
Structures can show the parent of a compound that is named as a salt.

System: not given
Test: not given
Settings: not given

SMILES	melting point
Cl.O=C(O)[C@@H]1CCCN(Cc2ccc(C3c4ccccc4CCc4ccccc43)cc2)C1	167 to 175 °C
CC(CN1c2ccccc2CCc2ccccc21)CN1CCCCC1C(=O)O (as salt: hydrochloride) (hydrate or solvate) [Example 3, 1-(3-(10,11-Dihydro-5H-dibenzo[b,f]azepin-5-yl)-(2R)-methyl-1-propyl)-(2R)-piperidinecarboxylic Acid Hydrochloride]	201 to 216 °C
CC(CCN1c2ccccc2CCc2ccccc21)N1CCC[C@@H](C(=O)O)C1.Cl (stereo partly drawn) (hydrate or solvate)	214 to 218 °C
CC(CN1CCC[C@@H](C(=O)O)C1)=C1c2ccccc2CCc2ccccc21.Cl (hydrate or solvate)	151 to 155 °C
CN(CCN1CCC[C@@H](C(=O)O)C1)C1c2ccccc2CCc2ccccc21 (hydrate or solvate) [Example 30, (R)-1-(2-(N-(10,11-dihydro-5H-dibenzo[a,d]cyclohepten-5-yl)-N-methylamino)ethyl)-3-piperidinecarboxylic Acid]	187 to 190 °C
O=C(O)[C@@H]1CCCN(C(=O)CC=C2c3ccccc3CCc3ccccc32)C1 [Example 5, 1-(3-(10,11-Dihydro-5H-dibenzo[a,d]cyclohepten-5-ylidene)-1-propionyl)-(3R)-piperidinecarboxylic Acid]	71 to 76 °C

Second part, the compound after the results:

melting point	SMILES
213 to 223 °C	CC(CN1c2ccccc2CCc2ccccc21)N1CCC[C@@H](C(=O)O)C1.Cl (stereo partly drawn) (hydrate or solvate)
116 to 120 °C	CCCC(CN1CCC[C@@H](C(=O)O)C1)CN1c2ccccc2CCc2ccccc21.Cl (stereo partly drawn) (hydrate or solvate)
180 to 183 °C	Cl.O=C(O)[C@@H]1CCCN(CCC(=O)N2c3ccccc3CCc3ccccc32)C1 (hydrate or solvate)
153 to 154 °C	O=C(O)[C@@H]1CCCN(CC#CCN2c3ccccc3CCc3ccccc32)C1 (hydrate or solvate) [Example 10, (R)-1-(4-(10,11-Dihydro-5H-dibenzo[b,f]azepin-5-yl)-2-butyn-1-yl)-3-piperidinecarboxylic Acid]

System: histamine induced paw oedema
Test: Histamine induced paw oedema (rat histamine paw oedema test)
Assay type: in vivo, male Sprague-Dawley rats
Settings: 1.0 mg/kg, intraperitoneally 15 minutes before anaesthetics; paw swelling 20 minutes after histamine, water plethysmography
Experimental: Compounds of formula I may be used to treat all painful, hyperalgesic and/or inflammatory conditions in which C-fibres play a pathophysiological role by eliciting neurogenic pain or inflammation, i.e.: The rat histamine paw oedema test was performed essentially as described by Amann et al. (Europ. J. Pharmacol. 279, 227-231, 1995). In brief 250-300 g male Sprague-Dawley rats were anaesthetized with pentobarbital sodium, and placed on a 32 degree (Celsius) heated table. Ten minutes later histamine (50 micoliter, 3 mg/ml) was injected in the right hind paw and 20 minutes hereafter the paw swelling was determined by water plethysmography (Ugo Basile). Test compounds were administered intraperitoneally at 15 minutes before the anaesthetics. Values for inhibition of histamine induced oedema response for some representative compounds are recorded in table 1.

SMILES	% Oedema inhibition
CC(CN1c2ccccc2CCc2ccccc21)CN1CCCCC1C(=O)O [Example 3, 1-(3-(10,11-Dihydro-5H-dibenzo[b,f]azepin-5-yl)-(2R)-methyl-1-propyl)-(2R)-piperidinecarboxylic Acid Hydrochloride]	47%
Cl.O=C(O)[C@@H]1CCCN(C/C=C\CN2c3ccccc3CCc3ccccc32)C1 [Example 4, 1-(4-(10,11-Dihydro-5H-dibenzo[b,f]azepin-5-yl)-(2Z)-butenyl)-(3R)-piperidinecarboxylic Acid Hydrochloride]	26%
